For experiment [1], the target named is Pro-neuropeptide Y (Homo sapiens, UniProt P01303).
The target of experiment [2] is Pro-neuropeptide Y (Rattus norvegicus, UniProt P07808).

The source of these data is BindingDB's records for doi:10.1073/pnas.93.10.4661 (Amgen, 1996).

As a reminder, the Ki is a dissociation constant, usually derived from enzyme kinetics or from competition with a known ligand. A high value points to a looser hold on the target. In the case of `CC[C@H](C)[C@H](NC(=O)[C@H](Cc1ccc(O)cc1)NC(=O)[C@H](CCCNC(=N)N)NC(=O)[C@H](CCCNC(=N)N)NC(=O)[C@H](CC(C)C)NC(=O)[C@H](CC(=O)O)NC(=O)[C@H](C)NC(=O)[C@H](C)NC(=O)[C@H](Cc1ccc(O)cc1)NC(=O)[C@H](CCC(N)=O)NC(=O)[C@H](C)NC(=O)[C@H](CCSC)NC(=O)[C@H](CCC(N)=O)NC(=O)[C@H](CCC(=O)O)NC(=O)[C@@H]1CCCN1C(=O)[C@@H](NC(=O)[C@H](C)NC(=O)[C@H](CC(N)=O)NC(=O)[C@H](CC(=O)O)NC(=O)CNC(=O)[C@@H]1CCCN1C(=O)[C@H](Cc1ccc(O)cc1)NC(=O)[C@@H](NC(=O)[C@@H]1CCCN1C(=O)[C@H](CCC(=O)O)NC(=O)[C@H](CC(C)C)NC(=O)[C@@H]1CCCN1C(=O)[C@H](C)N)C(C)C)[C@@H](C)O)C(=O)N[C@@H](CC(N)=O)C(=O)N[C@@H](CCSC)C(=O)N[C@@H](CC(C)C)C(=O)N[C@H](C(=O)N[C@@H](CCCNC(=N)N)C(=O)N1CCC[C@H]1C(=O)N[C@@H](CCCNC(=N)N)C(=O)N[C@@H](Cc1ccc(O)cc1)C(N)=O)[C@@H](C)O` [CAS_59763-91-6], the Ki in experiment [1] came to 1.9 nM; in experiment [2], 0.3 nM.

With `CC[C@H](C)[C@H](NC(=O)[C@H](Cc1ccc(O)cc1)NC(=O)[C@H](CCCNC(=N)N)NC(=O)[C@H](CCCNC(=N)N)NC(=O)[C@H](CC(C)C)NC(=O)[C@H](CCC(N)=O)NC(=O)[C@@H](NC(=O)[C@H](CCC(=O)O)NC(=O)[C@H](Cc1ccc(O)cc1)NC(=O)[C@H](CCC(N)=O)NC(=O)[C@H](C)NC(=O)[C@H](CCCNC(=N)N)NC(=O)[C@H](CCC(N)=O)NC(=O)[C@H](CCC(=O)O)NC(=O)[C@H](Cc1c[nH]cn1)NC(=O)[C@@H](NC(=O)[C@H](C)NC(=O)[C@H](Cc1ccc(O)cc1)NC(=O)[C@H](CC(=O)O)NC(=O)CNC(=O)[C@@H]1CCCN1C(=O)[C@H](Cc1ccc(O)cc1)NC(=O)[C@H](CCSC)NC(=O)[C@@H]1CCCN1C(=O)[C@H](CCC(=O)O)NC(=O)[C@H](CC(C)C)NC(=O)[C@@H]1CCCN1C(=O)[C@H](C)N)[C@@H](C)O)[C@@H](C)O)C(=O)N[C@@H](CC(N)=O)C(=O)N[C@H](C(=O)N[C@@H](CC(C)C)C(=O)N[C@H](C(=O)N[C@@H](CCCNC(=N)N)C(=O)N1CCC[C@H]1C(=O)N[C@@H](CCCNC(=N)N)C(=O)N[C@@H](Cc1ccc(O)cc1)C(N)=O)[C@@H](C)O)[C@@H](C)O` [NSC_41735], the Ki was 139 nM in experiment [1] and 0.4 nM in experiment [2].

In the case of “H-APLEPEYPGDNATPEQMAQYAAELRRYINMLTRPRY-NH2 [CAS_59763-91-6]”, affinity in experiment [1] was put at a Ki of 2.3 nM.
